In ChEMBL document CHEMBL2412998, “Search for a novel SIRT1 activator: structural modification of SRT1720 and biological evaluation” (Bioorg Med Chem Lett, 2013):
Activity calls are given as the source filed them. The calls are words filed in the database; no cut-off is given here.

What was measured:
[1] = target: T1, NAD-dependent protein deacetylase sirtuin-1 (Homo sapiens) (UniProt Q96EB6); experiment: Activation of human recombinant SIRT1 at 10 uM preincubated for 60 mins prior to substrate addition measured after 60 mins by fluorescence assay
T1 sequence (whole entry): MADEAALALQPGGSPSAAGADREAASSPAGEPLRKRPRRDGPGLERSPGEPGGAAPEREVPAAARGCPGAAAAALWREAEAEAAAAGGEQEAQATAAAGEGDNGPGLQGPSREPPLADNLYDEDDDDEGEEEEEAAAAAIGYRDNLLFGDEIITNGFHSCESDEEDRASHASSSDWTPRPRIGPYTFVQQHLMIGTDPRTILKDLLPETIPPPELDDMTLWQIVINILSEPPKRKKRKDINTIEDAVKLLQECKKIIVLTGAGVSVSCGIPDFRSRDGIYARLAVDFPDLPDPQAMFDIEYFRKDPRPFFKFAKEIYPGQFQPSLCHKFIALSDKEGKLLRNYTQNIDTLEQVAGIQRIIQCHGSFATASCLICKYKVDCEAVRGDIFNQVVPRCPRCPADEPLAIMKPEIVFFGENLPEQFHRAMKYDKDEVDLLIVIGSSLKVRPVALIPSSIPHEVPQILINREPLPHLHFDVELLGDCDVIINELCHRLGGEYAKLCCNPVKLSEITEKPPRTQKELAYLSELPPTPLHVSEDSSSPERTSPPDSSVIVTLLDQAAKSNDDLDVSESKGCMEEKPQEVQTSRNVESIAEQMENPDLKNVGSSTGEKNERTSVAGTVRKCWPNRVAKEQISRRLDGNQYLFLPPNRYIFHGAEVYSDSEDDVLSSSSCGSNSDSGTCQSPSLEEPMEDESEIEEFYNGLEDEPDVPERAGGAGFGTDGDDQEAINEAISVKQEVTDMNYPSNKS

[2] = target: T1, NAD-dependent protein deacetylase sirtuin-1 (Homo sapiens); experiment: Activation of human recombinant SIRT1 at 100 uM preincubated for 60 mins prior to substrate addition measured after 60 mins by fluorescence assay

| Structure (SMILES) | Activity [1] | Activity [2] |
| --- | --- | --- |
| O=C(Nc1ccccc1-c1cn2c(CN3CCNCC3)csc2n1)c1ccnc2ccccc12 | inactive |  |
| O=C(Nc1cccc(-c2cn3c(CN4CCCCC4)csc3n2)c1)c1cnc2ccccc2n1 | inactive |  |
| O=C(Nc1cccc(-c2cn3c(CN4CCOCC4)csc3n2)c1)c1cnc2ccccc2n1 | inactive |  |
| O=C(Nc1cccc(-c2cn3c(CN4CCNCC4)csc3n2)c1)c1cnc2ccccc2n1 | Active | Active |
| O=C(Nc1ccccc1-c1cn2c(CN3CCNCC3)csc2n1)c1cnc2ccccc2n1 | 160% | Active |
| CNCc1csc2nc(-c3ccccc3NC(=O)c3cnc4ccccc4n3)cn12 | inactive |  |
| O=C(Nc1ccc(-c2cn3c(CN4CCNCC4)csc3n2)cc1)c1cnc2ccccc2n1 | inactive |  |
| O=C(Nc1ccccc1-c1cn2c(CN3CCNCC3)csc2n1)c1ccc2ccccc2c1 | inactive |  |
| COCc1csc2nc(-c3ccccc3NC(=O)c3cnc4ccccc4n3)cn12 | inactive |  |
| O=C(Nc1cccc(-c2cn3c(CN4CCNCC4)csc3n2)c1)c1cnc2ccccc2c1 | 140% | Active |
| O=C(Nc1cccc(-c2cn3c(CN4CCNCC4)csc3n2)c1)c1ccnc2ccccc12 | inactive |  |
| O=C(Nc1cccc(-c2cn3c(CN4CCCC4)csc3n2)c1)c1cnc2ccccc2n1 | inactive |  |
| O=C(Nc1cccc(-c2cn3c(CN4CCNCC4)csc3n2)c1)c1cnccn1 | inactive |  |
| O=C(Nc1ccccc1-c1cn2c(CN3CCNCC3)csc2n1)c1cccc2ccccc12 | inactive |  |
| O=C(Nc1cccc(-c2cn3c(CN4CCNCC4)csc3n2)c1)c1cc2ccccc2[nH]1 | inactive |  |
| O=C(Nc1cccc(-c2cn3c(CN4CCNCC4)csc3n2)c1)c1ccc2ccccc2n1 | 140% | Active |
| COCCOCOCc1csc2nc(-c3ccccc3NC(=O)c3cnc4ccccc4n3)cn12 | inactive |  |
